Laboratory results published in US20130115522A1, “Manufacture of LiPO2F2” (SOLVAY SA, priority 2010, published 2013).

Assay: Solubility of LiPO2F2 (and by-product salts) in organic solvents
Format: physicochemical
Text: If it is desired to isolate LiPO2F2 and Li2PO3F from any LiF, polar aprotic solvents can be applied. For example, dialkyl carbonates are suitable for this purpose. Other solvents are acetone, isopropanol, tetrahydrofurane, ethyl acetate, acetonitrile, and diethyl carbonate. If it is desired to isolate selectively LiPO2F2, propylene carbonate was identified as very suitable solvent because LiPO2F2 is soluble therein, and Li2PO3F and also LiF are not. Other very suitable solvents are diethyl carbonate, a mixture of dimethyl carbonate and propylene carbonate, acetonitrile, dimethoxyethane and acetone. The solubility of LiPO2F2 in these solvents at ambient temperature is compiled in the following table 1.
Under inert gas (nitrogen), pure LiPO2F2 was dissolved in propylene carbonate at about 20° C. such that a solution is obtained comprising about 2.75% by weight of LiPO2F2.
Under inert gas (nitrogen), pure LiPO2F2 was dissolved in the respective solvent or solvent mixture at about 20° C. such that a solution containing the amounts of dissolved LiPO2F2 given in the following table 3 were achieved. The data for solution No. 1 was taken from example 4, the data for solutions No. 2 to 6 of table 3 correspond to those of table 1.

Solubility in acetone (in words) (acetone): very low solubility
Solubility in dimethoxyethane (in words) (dimethoxyethane): at most in neglectable amounts
Solubility in dimethyl carbonate, propylene carbonate and mixtures thereof (in words) (dimethyl carbonate, propylene carbonate and mixtures thereof): at most in neglectable amounts
Solubility in propylene carbonate (in words) (propylene carbonate): are not
Compound: [F-].[Li+] [LiF]
